The supplement of paper PMC13380429

Assays:
Settings in all cases: 72 h
HepG2 [1] = experiment: cell viability relative to DMSO; higher = less toxic
U2OS [2] = experiment: as above
Vero E6 [3] = experiment: as above
Calu-3 [4] = experiment: as above
Caco-2 [5] = experiment: as above
HepG2 [6] = experiment: drug sensitivity score (DSS) for viability; higher = more toxic; extreme values may be limits of the assay
U2OS [7] = experiment: as above
Vero E6 [8] = experiment: as above
Calu-3 [9] = experiment: as above
Caco-2 [10] = experiment: as above
HepG2 [11] = experiment: relative viability EC50 (midpoint between 100% and the lowest measured viability); higher = less toxic
U2OS [12] = experiment: as above
Vero E6 [13] = experiment: as above
Calu-3 [14] = experiment: as above
Caco-2 [15] = experiment: as above

Compound | cell viability (HepG2 [1]; 1 nM) [%] | cell viability (HepG2 [1]; 10 nM) [%] | cell viability (HepG2 [1]; 100 nM) [%] | cell viability (HepG2 [1]; 1000 nM) [%] | cell viability (HepG2 [1]; 10000 nM) [%] | cell viability (U2OS [2]; 1 nM) [%] | cell viability (U2OS [2]; 10 nM) [%] | cell viability (U2OS [2]; 100 nM) [%] | cell viability (U2OS [2]; 1000 nM) [%] | cell viability (U2OS [2]; 10000 nM) [%] | cell viability (Vero E6 [3]; 1 nM) [%] | cell viability (Vero E6 [3]; 10 nM) [%] | cell viability (Vero E6 [3]; 100 nM) [%] | cell viability (Vero E6 [3]; 1000 nM) [%] | cell viability (Vero E6 [3]; 10000 nM) [%] | cell viability (Calu-3 [4]; 1 nM) [%] | cell viability (Calu-3 [4]; 10 nM) [%] | cell viability (Calu-3 [4]; 100 nM) [%] | cell viability (Calu-3 [4]; 1000 nM) [%] | cell viability (Calu-3 [4]; 10000 nM) [%] | cell viability (Caco-2 [5]; 1 nM) [%] | cell viability (Caco-2 [5]; 10 nM) [%] | cell viability (Caco-2 [5]; 100 nM) [%] | cell viability (Caco-2 [5]; 1000 nM) [%] | cell viability (Caco-2 [5]; 10000 nM) [%] | drug sensitivity score (HepG2 [6]) | drug sensitivity score (U2OS [7]) | drug sensitivity score (Vero E6 [8]) | drug sensitivity score (Calu-3 [9]) | drug sensitivity score (Caco-2 [10]) | relative viability EC50 (HepG2 [11]) [µM] | relative viability EC50 (U2OS [12]) [µM] | relative viability EC50 (Vero E6 [13]) [µM] | relative viability EC50 (Calu-3 [14]) [µM] | relative viability EC50 (Caco-2 [15]) [µM]
CCN(CC)CCNc1ccc(CO)c2sc3ccccc3c(=O)c12 [hycanthone] | 101 | 96.5 | 84.2 | 70 | 0.7 | 100 | 101 | 96.2 | 104 | 85.2 | 104 | 101 | 103 | 88.5 | 32.8 | 101 | 110 | 101 | 102 | 84.8 | 90 | 106 | 111 | 104 | 44.2 | 9.1 | 0.1 | 5.6 | 0.2 | 2.7 | 1.55 | > 10 | 1.87 | > 10 | 3.5
O=c1c(O[C@@H]2O[C@H](CO)[C@H](O)[C@H](O)[C@H]2O)c(-c2ccc(O)c(O)c2)oc2cc(O)cc(O)c12 [hyperin] | 84.8 | 95.7 | 87.3 | 103 | 97.9 | 99.5 | 97.3 | 101 | 98.4 | 100 | 98 | 97.2 | 94 | 97.7 | 108 | 96.9 | 86.3 | 102 | 104 | 98.9 | 104 | 93.3 | 99 | 107 | 105 | 0 | 0 | 0 | 0 | 0 | > 10 | > 10 | > 10 | > 10 | > 10
Cc1cccc(/C=C/c2ccccc2)n1 [SIB-1893] | 108 | 96.1 | 107 | 102 | 94.2 | 99.8 | 106 | 96.3 | 103 | 97.4 | 94 | 104 | 102 | 103 | 100 | 100 | 102 | 99.2 | 98.1 | 102 | 88.7 | 101 | 90.7 | 100 | 96.9 | 0 | 0 | 0 | 0 | 0 | > 10 | > 10 | > 10 | > 10 | > 10
CCc1cccc(CC)c1NC(=O)CN(CC(=O)O)CC(=O)O [etifenin] | 104 | 84.1 | 106 | 95.9 | 113 | 87.1 | 97.2 | 90.1 | 103 | 106 | 106 | 93.7 | 106 | 97.4 | 95 | 94.6 | 104 | 105 | 90.5 | 90.6 | 83.1 | 104 | 95.7 | 124 | 93.3 | 0 | 0 | 0 | 0 | 0 | > 10 | > 10 | > 10 | > 10 | > 10
[Cl][Ti][Cl].c1cc[cH-]c1.c1cc[cH-]c1 [titanocene-dichloride] | 89.6 | 91.9 | 97.2 | 104 | 101 | 93.2 | 93.1 | 97.5 | 94.6 | 96.1 | 93.7 | 95.2 | 93.4 | 98.9 | 105 | 99.2 | 97.1 | 112 | 97.1 | 110 | 97.7 | 98.2 | 99.2 | 94.6 | 95.8 | 0 | 0 | 0 | 0 | 0 | > 10 | > 10 | > 10 | > 10 | > 10
CC(C)(C(=O)O)c1ccc(C(=O)CCCN2CCC(OC(c3ccccc3)c3ccccc3)CC2)cc1 [carebastine] | 107 | 97.7 | 94.3 | 108 | 92.9 | 95.7 | 99.2 | 99.4 | 93.2 | 99.3 | 111 | 106 | 95.3 | 104 | 106 | 89.7 | 88.6 | 110 | 100 | 102 | 101 | 101 | 107 | 92.2 | 96.6 | 0 | 0 | 0 | 0 | 0 | > 10 | > 10 | > 10 | > 10 | > 10
